{
  "source": "paper PMC10165273",
  "about": "“Itch receptor MRGPRX4 interacts with the receptor activity–modifying proteins” (The Journal of Biological Chemistry, 2023)",
  "key": {"MRGPRX4 + RAMP3 [1]": {"molecular_target": "T1, MRGPRX4 + RAMP3 (Homo sapiens, UniProt Q96LA9)", "T1 construct": "expressed in transfected cells; host or cells: HEK293T", "T1 sequence (Q96LA9 whole entry)": "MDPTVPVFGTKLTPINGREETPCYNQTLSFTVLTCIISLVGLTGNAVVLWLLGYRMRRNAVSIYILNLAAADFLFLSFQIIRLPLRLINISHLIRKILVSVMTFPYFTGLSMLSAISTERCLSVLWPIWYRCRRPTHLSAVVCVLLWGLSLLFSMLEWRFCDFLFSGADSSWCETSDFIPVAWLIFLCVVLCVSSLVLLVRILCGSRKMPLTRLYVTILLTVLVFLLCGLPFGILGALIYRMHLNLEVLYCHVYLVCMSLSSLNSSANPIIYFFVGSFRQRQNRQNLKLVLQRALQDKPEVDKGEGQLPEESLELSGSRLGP", "assay": "IP1 accumulation, MRGPRX4 coexpressed with RAMP3", "type": "cell-based", "design": "key: % IP1; unstimulated mock = 0%, fully stimulated MRGPRX4 = 100%", "conditions": "Figure 4c-f; agonist 100µM; X4:ramp3 1:2; MRGPRX4 = 100"}, "MRGPRX4 + RAMP3 [2]": {"molecular_target": "T1, MRGPRX4 + RAMP3", "assay": "IP1 accumulation, MRGPRX4 coexpressed with RAMP3", "type": "cell-based", "design": "key to IP1 Basal / response to agonist, X4:ramp3.I:0.25 / response to agonist, X4:ramp3.I:0.5 / response to agonist, X4:ramp3.I:1: % IP1; unstimulated mock = 0%, fully stimulated MRGPRX4 = 100%", "conditions": "for activation at 100 µM / activation at 20 µM / activation at 4 µM / activation at 0.8 µM / activation at […] / activation at 0.032 µM: 2 h, Fig S3f, read-out: IP1 accumulation; for activation at 100 µM: log [DCA] (M) -4; for activation at 20 µM: log [DCA] (M) -4.69897; for activation at 4 µM: log [DCA] (M) -5.39794; for activation at 0.8 µM: log [DCA] (M) -6.09691; for activation at […]: log [DCA] (M) -6.79588; for activation at 0.032 µM: log [DCA] (M) -7.49485", "description": "(§1) HEK293T cells were transfected with 1 pg/cell of MRGPRX4 DNA, and the amount of DNA was kept constant at 2 pg/cell with pcDNA3.1(+) empty vector, unless otherwise specified. Twenty four hours after transfection, IP1 assay was performed as previously described ([51]). When applicable, cells were treated with 1 μM YM254890 (YM) or different concentrations of U73122 for 1 h prior to addition of agonist or buffer. After incubation for 2 h, HTRF reagents and IP1 calibration standards were added and incubated for 2 h in the dark at room temperature. Time-resolved fluorescence signals were read on the BioTek Synergy NEO-TRF Hybrid multi-mode reader (BioTek Instruments). All data were carried out in three independent experiments with three technical replicate each.\nFor RAMP DNA titration assay, HEK293T cells were cotransfected with a constant amount of 1 pg/cell of FLAG-MRGPRX4-GFP10-1D4 to which a serial dilution of 1, 0.75, 0.5, 0.25, or 0 pg/cell of each HA-RAMP-OLLAS was added. For a homogenous transfection of MRGPRX4, a master mix of MRGPRX4 DNA was made prior to addition of the RAMP DNA. […]\n(§2) Data reduction, standard calibration, and transformation of HTRF data were performed as previously described ([51]). Normalized IP1 values were calculated relative to the unstimulated mock-transfected cells (set to 0%) and fully stimulated MRGPRX4 (alone if applicable) (set to 100%)."}, "[3]": {"tested_on": "mock-transfected HEK293T cells", "assay": "IP1 accumulation, mock-transfected cells", "type": "cell-based, human", "design": "IP1 Basal / IP1 span / IP1 Emax / IP1 accumulation, dose-response (Figure 1a) / IP1 accumulation with YM (Figure 1c) / IP1 accumulation: unit not given here", "conditions": "Mock, MRGPRX4 construct comparison (Fig. S4B,C-F)", "description": "as §1\nValidation of CALCRL constructs was assayed by cotransfecting HEK293T cells with different tagged versions of CALCRL alone or with each RAMP and with the promiscuous Gqs5 Gq chimera protein, at a respective DNA ratio of 1:1:0.5. Gqs5 is an engineered Gq protein containing the last five amino acid residues of Gs, which allows Gs-coupled GPCRs to signal through Gq downstream signaling pathways ([55]). The homogenous transfection method described above was used for all DNA mixes. CALCRL:RAMP2:Gqs5-transfected cells served as positive control for RAMP functionality.\nas §2"}, "[4]": {"conditions": "MRGPRX4 + RAMP3 0.25 pg (Fig. S3), normalized per agonist"}, "[5]": {"conditions": "MRGPRX4 + RAMP3 0.5 pg (Fig. S3), normalized per agonist"}, "[6]": {"conditions": "MRGPRX4 + RAMP3 1 pg (Fig. S3), normalized per agonist"}, "[7]": {"conditions": "MRGPRX4 + RAMP3 2 pg (Fig. S3), normalized per agonist"}},
  "note": "“And” between values parts separate entries of the source, which are not always exact repeats. Equal values may be shown once. Read-outs that look alike come from different tables or passages of the source.",
  "data": [
    {"smiles": "C[C@H](CCC(=O)O)[C@H]1CC[C@H]2[C@@H]3CC[C@@H]4C[C@H](O)CC[C@]4(C)[C@H]3C[C@H](O)[C@]12C", "note": "[DCA, deoxycholic acid]", "values": [
      {"measurement": "response to agonist, X4:ramp3.I:2", "setting": "MRGPRX4 + RAMP3 [1]", "value": "55.7055 and 63.4334"},
      {"measurement": "activation at 100 µM", "setting": "MRGPRX4 + RAMP3 [2]; ratio MRGPRX4:RAMP3 1:0.25", "value": 92.7, "unit": "%"},
      {"measurement": "activation at 20 µM", "setting": "MRGPRX4 + RAMP3 [2]; ratio MRGPRX4:RAMP3 1:0.25", "value": 69.5, "unit": "%"},
      {"measurement": "activation at 4 µM", "setting": "MRGPRX4 + RAMP3 [2]; ratio MRGPRX4:RAMP3 1:0.25", "value": 48.4, "unit": "%"},
      {"measurement": "activation at 0.8 µM", "setting": "MRGPRX4 + RAMP3 [2]; ratio MRGPRX4:RAMP3 1:0.25", "value": 35.7, "unit": "%"},
      {"measurement": "activation at […]", "setting": "MRGPRX4 + RAMP3 [2]; ratio MRGPRX4:RAMP3 1:0.25", "value": 34.1, "unit": "%"},
      {"measurement": "activation at 0.032 µM", "setting": "MRGPRX4 + RAMP3 [2]; ratio MRGPRX4:RAMP3 1:0.25", "value": 31.5, "unit": "%"},
      {"measurement": "activation at 100 µM", "setting": "MRGPRX4 + RAMP3 [2]; ratio MRGPRX4:RAMP3 1:0.5", "value": 90.4, "unit": "%"},
      {"measurement": "activation at 20 µM", "setting": "MRGPRX4 + RAMP3 [2]; ratio MRGPRX4:RAMP3 1:0.5", "value": 53.8, "unit": "%"},
      {"measurement": "activation at 4 µM", "setting": "MRGPRX4 + RAMP3 [2]; ratio MRGPRX4:RAMP3 1:0.5", "value": 33.6, "unit": "%"},
      {"measurement": "activation at 0.8 µM", "setting": "MRGPRX4 + RAMP3 [2]; ratio MRGPRX4:RAMP3 1:0.5", "value": 22, "unit": "%"},
      {"measurement": "activation at […]", "setting": "MRGPRX4 + RAMP3 [2]; ratio MRGPRX4:RAMP3 1:0.5", "value": 21.2, "unit": "%"},
      {"measurement": "activation at 0.032 µM", "setting": "MRGPRX4 + RAMP3 [2]; ratio MRGPRX4:RAMP3 1:0.5", "value": 21.7, "unit": "%"},
      {"measurement": "activation at 100 µM", "setting": "MRGPRX4 + RAMP3 [2]; ratio MRGPRX4:RAMP3 1:1", "value": 97.9, "unit": "%"},
      {"measurement": "activation at 20 µM", "setting": "MRGPRX4 + RAMP3 [2]; ratio MRGPRX4:RAMP3 1:1", "value": 49.2, "unit": "%"},
      {"measurement": "activation at 4 µM", "setting": "MRGPRX4 + RAMP3 [2]; ratio MRGPRX4:RAMP3 1:1", "value": 28.3, "unit": "%"},
      {"measurement": "activation at 0.8 µM", "setting": "MRGPRX4 + RAMP3 [2]; ratio MRGPRX4:RAMP3 1:1", "value": 19.5, "unit": "%"},
      {"measurement": "activation at […]", "setting": "MRGPRX4 + RAMP3 [2]; ratio MRGPRX4:RAMP3 1:1", "value": 19.6, "unit": "%"},
      {"measurement": "activation at 0.032 µM", "setting": "MRGPRX4 + RAMP3 [2]; ratio MRGPRX4:RAMP3 1:1", "value": 18.9, "unit": "%"},
      {"measurement": "activation at 20 µM", "setting": "MRGPRX4 + RAMP3 [2]; ratio MRGPRX4:RAMP3 1:2", "value": 48.1, "unit": "%"},
      {"measurement": "activation at 4 µM", "setting": "MRGPRX4 + RAMP3 [2]; ratio MRGPRX4:RAMP3 1:2", "value": 23.1, "unit": "%"},
      {"measurement": "activation at […]", "setting": "MRGPRX4 + RAMP3 [2]; ratio MRGPRX4:RAMP3 1:2", "value": 16.8, "unit": "%"},
      {"measurement": "activation at 0.032 µM", "setting": "MRGPRX4 + RAMP3 [2]; ratio MRGPRX4:RAMP3 1:2", "value": 15.3, "unit": "%"},
      {"measurement": "Emax", "setting": "MRGPRX4 + RAMP3 [2]; Figure 4a bottom, DNA ratio MRGPRX4:RAMP3 1:0.75, MRGPRX4 alone = 100, read-out: efficacy", "value": 74.9, "unit": "%"},
      {"measurement": "response to agonist, X4:ramp3.I:0.25", "setting": "MRGPRX4 + RAMP3 [2]; Figure 4c-f, agonist 100µM, X4:ramp3 1:0.25, MRGPRX4 = 100", "value": "83.1455 and 78.9266"},
      {"measurement": "response to agonist, X4:ramp3.I:0.5", "setting": "MRGPRX4 + RAMP3 [2]; Figure 4c-f, agonist 100µM, X4:ramp3 1:0.5, MRGPRX4 = 100", "value": "72.4625 and 76.3406"},
      {"measurement": "response to agonist, X4:ramp3.I:1", "setting": "MRGPRX4 + RAMP3 [2]; Figure 4c-f, agonist 100µM, X4:ramp3 1:1, MRGPRX4 = 100", "value": "72.2618 and 56.5732"},
      {"measurement": "IP1 Basal", "setting": "MRGPRX4 + RAMP3 [2]; [4]", "value": 26.80},
      {"measurement": "IP1 span (top minus basal of the concentration-response fit)", "setting": "MRGPRX4 + RAMP3 [2]; [4]", "value": 84.2, "unit": "%"},
      {"measurement": "Emax", "setting": "MRGPRX4 + RAMP3 [2]; MRGPRX4 + RAMP3 0.25 pg (Fig. S3), normalized per agonist, read-out: IP1 Emax", "value": 111, "unit": "%"},
      {"measurement": "IP1 Basal", "setting": "MRGPRX4 + RAMP3 [2]; [5]", "value": 21.60},
      {"measurement": "IP1 span (top minus basal of the concentration-response fit)", "setting": "MRGPRX4 + RAMP3 [2]; [5]", "value": 78.8, "unit": "%"},
      {"measurement": "Emax", "setting": "MRGPRX4 + RAMP3 [2]; MRGPRX4 + RAMP3 0.5 pg (Fig. S3), normalized per agonist, read-out: IP1 Emax", "value": 100, "unit": "%"},
      {"measurement": "IP1 Basal", "setting": "MRGPRX4 + RAMP3 [2]; [6]", "value": 23.28},
      {"measurement": "IP1 span (top minus basal of the concentration-response fit)", "setting": "MRGPRX4 + RAMP3 [2]; [6]", "value": 92.1, "unit": "%"},
      {"measurement": "Emax", "setting": "MRGPRX4 + RAMP3 [2]; MRGPRX4 + RAMP3 1 pg (Fig. S3), normalized per agonist, read-out: IP1 Emax", "value": 115, "unit": "%"},
      {"measurement": "IP1 Basal", "setting": "MRGPRX4 + RAMP3 [2]; [7]", "value": 14.52},
      {"measurement": "IP1 span (top minus basal of the concentration-response fit)", "setting": "MRGPRX4 + RAMP3 [2]; [7]", "value": 85.8, "unit": "%"},
      {"measurement": "Emax", "setting": "MRGPRX4 + RAMP3 [2]; MRGPRX4 + RAMP3 2 pg (Fig. S3), normalized per agonist, read-out: IP1 Emax", "value": 100, "unit": "%"},
      {"measurement": "Emax", "setting": "[3]; Homo sapiens, HEK-293T", "value": 0.236, "unit": "%"},
      {"measurement": "IP1 Basal", "setting": "[3]", "value": 2.330}
    ]}
  ]
}
